Results taken from the supplement of paper PMC10307832.

Key:
Assay in all cases: relative viability (nuclei count vs DMSO), 5 days (fraction); higher = more cells survive
[1] = compound: C[C@H]([C@@H](C(=O)N)NC(=O)[C@@H]1CSSC[C@@H](C(=O)N[C@H](C(=O)N[C@@H](C(=O)N[C@H](C(=O)N1)CCCCN)CC2=CNC3=CC=CC=C32)CC4=CC=C(C=C4)O)NC(=O)[C@@H](CC5=CC=CC=C5)N)O [CAP-232] + NC(=O)Nc1cc(-c2cccc(F)c2)sc1C(=O)N[C@H]1CCCNC1 [AZD7762] (partner 0.2 µM)
In short: (§1)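 Nuclei were stained with Hoechst during a one-step fixation (final 0.05% Triton X-100, 1% formaldehyde, 1 ug/ml Hoechst) carried out 5 days after dosing, then counted on 4× images. The cells, lung cancer lines in 1536-well plates, had been dosed by pin tool the day after seeding with one drug alone or a fixed anchor-drug dose plus five library-drug doses (not always all listed) in √10 steps. Relative viability is the nuclei count in treated wells divided by that in vehicle wells, and each value is the median of duplicate plates.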

[2] = compound: C[C@H]([C@@H](C(=O)N)NC(=O)[C@@H]1CSSC[C@@H](C(=O)N[C@H](C(=O)N[C@@H](C(=O)N[C@H](C(=O)N1)CCCCN)CC2=CNC3=CC=CC=C32)CC4=CC=C(C=C4)O)NC(=O)[C@@H](CC5=CC=CC=C5)N)O [CAP-232] + CCNC(=O)c1noc(-c2cc(C(C)C)c(O)cc2O)c1-c1ccc(CN2CCOCC2)cc1 [Luminespib] (partner 0.01 µM)
In short: as §1

[3] = compound: C[C@H]([C@@H](C(=O)N)NC(=O)[C@@H]1CSSC[C@@H](C(=O)N[C@H](C(=O)N[C@@H](C(=O)N[C@H](C(=O)N1)CCCCN)CC2=CNC3=CC=CC=C32)CC4=CC=C(C=C4)O)NC(=O)[C@@H](CC5=CC=CC=C5)N)O [CAP-232] + O=C(c1cc(Cc2n[nH]c(=O)c3ccccc23)ccc1F)N1CCN(C(=O)C2CC2)CC1 [Olaparib] (partner 8 µM)
In short: as §1

[4] = compound: C[C@H]([C@@H](C(=O)N)NC(=O)[C@@H]1CSSC[C@@H](C(=O)N[C@H](C(=O)N[C@@H](C(=O)N[C@H](C(=O)N1)CCCCN)CC2=CNC3=CC=CC=C32)CC4=CC=C(C=C4)O)NC(=O)[C@@H](CC5=CC=CC=C5)N)O [CAP-232] + CC(=O)c1c(C)c2cnc(Nc3ccc(N4CCNCC4)cn3)nc2n(C2CCCC2)c1=O [Palbociclib] (partner 0.5 µM)
In short: as §1

[5] = compound: C[C@H]([C@@H](C(=O)N)NC(=O)[C@@H]1CSSC[C@@H](C(=O)N[C@H](C(=O)N[C@@H](C(=O)N[C@H](C(=O)N1)CCCCN)CC2=CNC3=CC=CC=C32)CC4=CC=C(C=C4)O)NC(=O)[C@@H](CC5=CC=CC=C5)N)O [CAP-232] + C[C@]1(O)C[C@@H](c2nc(-c3ccc4ccc(-c5ccccc5)nc4c3)c3c(N)nccn32)C1 [Linsitinib] (partner 1 µM)
In short: as §1

Cell Line	relative viability ([1]; first compound 0.4 µM)	relative viability ([1]; first compound 1.265 µM)	relative viability ([1]; first compound 4 µM)	relative viability ([1]; first compound 12.65 µM)	relative viability ([2]; first compound 0.4 µM)	relative viability ([2]; first compound 1.265 µM)	relative viability ([2]; first compound 4 µM)	relative viability ([2]; first compound 12.65 µM)	relative viability ([3]; first compound 0.4 µM)	relative viability ([3]; first compound 1.265 µM)	relative viability ([3]; first compound 4 µM)	relative viability ([3]; first compound 12.65 µM)	relative viability ([4]; first compound 0.4 µM)	relative viability ([4]; first compound 1.265 µM)	relative viability ([4]; first compound 4 µM)	relative viability ([4]; first compound 12.65 µM)	relative viability ([5]; first compound 0.4 µM)	relative viability ([5]; first compound 1.265 µM)	relative viability ([5]; first compound 4 µM)	relative viability ([5]; first compound 12.65 µM)
ChaGo-K-1	0.869	0.868	0.916	0.817	0.574	0.638	0.495	0.545	0.425	0.428	0.456	0.421	0.964	0.932	1.01	0.932	–	–	–	–
EKVX	0.899	0.712	0.699	0.471	0.876	0.719	0.871	0.645	0.901	0.95	0.993	0.804	0.387	0.339	0.262	0.262	1.01	1.07	0.972	0.737
EMC-BAC-2	1.28	1.05	1.12	0.828	1.32	1.19	1.21	1.05	0.52	0.47	0.469	0.398	0.507	0.512	0.491	0.427	0.785	0.796	0.821	0.774
EPLC-272H	0.287	0.165	0.228	0.209	0.256	0.198	0.219	0.157	–	0.935	0.761	0.31	0.342	0.292	0.297	0.296	1.33	1.02	1.3	1.09
H3255	0.979	0.869	0.898	0.756	0.805	0.825	1.05	1.01	0.569	0.587	0.552	0.433	0.314	0.32	0.329	0.282	0.922	0.924	1.16	0.916
HARA	0.397	0.576	0.267	0.315	0.918	0.884	0.973	0.804	0.823	0.784	0.865	0.609	0.236	0.31	0.246	0.265	0.907	0.989	1.14	0.836
HCC-15	1.36	1.28	1.34	1.14	0.254	0.228	0.248	0.312	0.65	0.711	0.737	0.55	0.754	0.763	0.567	0.567	0.853	0.894	0.912	0.805
HCC-78	0.747	0.612	0.591	0.713	–	–	–	–	0.852	0.863	1.08	0.924	0.481	0.496	0.552	0.49	0.53	0.559	0.371	0.408
